{"source": "patent US5843917A", "about": "“5-Fluorouracil derivatives” (priority 1993, dated 1998)", "key": {"DPD": {"system": "DPD", "test": "Protection of 5-FU from DPD catabolism by release of 5-EU from nucleosides (urinary recovery of 5-FU in rats)", "assay_type": "in vivo", "settings": "rat; oral predose 0.03, 0.3 and 3.0 mg/kg, then 25 mg/kg 5-FU", "quoted_text": "5-FU and 5-EU bases and nucleosides were dissolved in deionized HPLC grade water immediately prior to dosing. […] 5-EU and 5-EU nucleosides were dosed to animals 0.5 hr prior to dosing with 5-FU and 5-FU nucleosides. Dosing was routinely performed between 11 am and 1 pm. An approximate volume of 300 μL was used for each dose. Rats were placed in individual Nalge metabolism cages, which separate urine and faeces, and continued on a 12 hr light/dark schedule post-dosing.\n5 ml of a thoroughly mixed urine sample was filtered through a Millex GS 0.22 μm filter (Millipore, Bedford, Mass.) and frozen prior to HPLC analysis. 1 ml of the thawed primary filtered solution was diluted with 2 ml of water and particulates were removed from this diluted stock solution using a Centrifree micro partition system (Amicon Division, W. R. Grace and Co., Beverly Mass.). […]"}, "[1]": {"settings": "literature reports; combination with 5-fluorouracil or its prodrug; cited from earlier work"}, "uracil reductase": {"system": "uracil reductase", "settings": "cited from earlier work"}, "[2]": {"test": "Urinary recovery of 5-FU in rats dosed with the succinate linked nucleoside", "assay_type": "in vivo", "settings": "rat; 25 mg/kg 5-FU equivalent", "protocol": "(§1) 5-FU and 5-EU bases and nucleosides were dissolved in deionized HPLC grade water immediately prior to dosing. All animals were dosed once, p.o. via gastric gavage at the indicated mg/kg dose for each compound (See Results Section and Figures). 5-EU and 5-EU nucleosides were dosed to animals 0.5 hr prior to dosing with 5-FU and 5-FU nucleosides. Dosing was routinely performed between 11 am and 1 pm. An approximate volume of 300 μL was used for each dose. Rats were placed in individual Nalge metabolism cages, which separate urine and faeces, and continued on a 12 hr light/dark schedule post-dosing. Mice were treated post-dose in a similar manner with the exception that 5 mice were housed per cage.\nUrine from each cage was collected into 0-24 hr and 24-48 hr post-dose fractions. […]\n(§2) 5 ml of a thoroughly mixed urine sample was filtered through a Millex GS 0.22 μm filter (Millipore, Bedford, Mass.) and frozen prior to HPLC analysis. […] 100 μL of this solution was quantitated for 5-FU by HPLC on a Waters Associates System (Waters Associates, Milford, Mass.) equipped with a Waters 600E system controller, a Waters 600 solvent delivery system, a Waters model 712 WISP automated sample injector, a Waters 484 tuneable absorbance detector, and a Waters 991 photodiode array detector. […]\nRats were dosed 25 mg/kg 5-FU equivalent with the succinate linked nucleosides. […] 5-FU was not detected in the 24-48 hr urine."}, "[3]": {"test": "In vivo antitumor testing with s.c. murine Colon 38 carcinoma in C57BL/6 female mice", "settings": "mouse, in vivo, sc, mice with s.c. Colon 38", "protocol": "(§3) In vivo antitumor testing with murine Colon 38 was conducted in-house. C57BL/6 female mice were housed in sterile, polycarbonate, filter-capped Microisolator cages (Lab Products, Inc., Maywood, N.J.) containing sterile hardwood bedding. Mice were fed sterile rodent chow and filter-sterilised water ad libitum. All manipulations of these mice were conducted in laminar-flow biosafety hoods. Colon 38 carcinoma was obtained from the Development Therapeutics Program Tumour Repository. Mice were implanted s.c. with 70 mg tumour fragments using a number 13 trocar. There were 10 mice in the control group that received tumour implants without drug treatment. There were 5 mice in each group treated with the dose and compounds as described below. Treatment began on day 16 post tumour implant and compounds were dosed once/day for 9 days. 5-FU was dosed at 15, 20, 25, 30, and 40 mg/kg.. […] Tumour weights were calculated three times per week from measurements of tumour length and width. Antitumor activity was expressed as the days delay in tumour growth (T-C). T-C was calculated as the difference in the median of days for treated animals minus control animals for tumour mass to double twice post initial day of dosing (Day 16). Tumour-free survivors were not excluded from T-C calculations. Surviving mice were sacrificed after day 56."}, "Colon 38": {"system": "Colon 38", "test": "In vivo antitumor testing with s.c. murine Colon 38 carcinoma in C57BL/6 female mice", "protocol": "as §3"}, "[4]": {"test": "Urinary recovery of 5-FU in mice dosed with 5-FU or the succinate linked nucleoside", "assay_type": "in vivo", "settings": "mouse; for dose excreted: urine, po, 5 mg/kg", "protocol": "as §1\n(§4) Urine from each cage was collected into 0-24 hr and 24-48 hr post-dose fractions. Cages were rinsed with deionized water prior to collection of each fraction. The combined volume of urine and rinse was brought to a standard volume with deionized water.\n5-FU recovery in mouse urine was determined as above with three exceptions: a Phenomenex 5 μm Extrasil C-18 column (250mm×4.6 mm i.d.; Phenomenex, Torrance, Calif.) was used; an identical gradient with buffer A as aqueous 50 mM formic acid, pH 3.5, with 0.5% acetonitrile and buffer B as aqueous 50 mM formic acid, pH 3.5, with 60% acetonitrile was used; the standard curve was prepared by diluting known concentrations of 5-FU into undosed mouse urine and eluting with the latter described gradient and buffers, instead of isocratic conditions.\nFor these studies mice were dosed with either 5 mg/kg 5-FU or given an equivalent dose of 5-FU via the succinate linked nucleoside. The urinary recovery of 5-FU was measured in the presence and absence of 5-EU (Table 2). […] When mice were predosed with 5-EU followed by dosing with 5-FU, the urinary recovery of 5-FU was 50%. Mice dosed with the succinate linked nucleoside gave 25-30% urinary recovery of 5-FU available from the linked compound."}, "[5]": {"test": "Urinary recovery of 5-FU in rats for 5-FU and various 5-FU containing nucleosides", "assay_type": "in vivo", "settings": "rat, urine, po, p.o., read-out: % 5-FU Recovery 0-24 hr Urine (Average of Two Experiments)", "protocol": "as §1, §4\nas §2, with “detector. For quantitiation of 5-FU in rat urine, HPLC was performed on a 250 mm×4.6 mm YMC AQ-303 S-5 120A ODS analytical column (YMC, Morris Plains, N.J.) or on a Microsorb C18 analytical column with identical dimensions (Rainin Instrument Co., Woburn, Mass.).” for “detector.”\nPlots of UV peak area vs 5-FU concentration were linear between 5 μM and 100 μM. The total urinary recovery of 5-FU was determined by multiplication of the nmoles of 5-FU determined from the standard curve by the dilution factor of 3 (above) and by the standard volume of urine collected. […]"}}, "note": "Like-named read-outs stand apart in the source and are kept apart here."}
{"smiles": "C#Cc1cn([C@H]2C[C@H](O)[C@@H](COP(=O)(O)O)O2)c(=O)[nH]c1=O", "note": "[2'-deoxy-5'-monophosphate of 5-EU, 1-(2-Deoxy-β-D-Erythro-Pentofuranosyl)-5-Ethynyluracil 5'-Monophosphate]", "values": [{"measurement": "dose response for urinary recovery of 5-FU", "setting": "DPD", "value": "A direct dose response for urinary recovery of 5-FU was observed"}]}
{"smiles": "O=c1[nH]c(=O)n([C@H]2C[C@H](O)[C@@H](CO)O2)cc1C=CBr", "note": "[5-(2-bromovinyl)-2'-deoxyuridine]", "values": [{"measurement": "effect on 5-fluorouracil metabolism and antitumour activity", "setting": "[1]", "value": "enhances the antitumour activity of 5-fluorouracil and 5-deoxy-5-fluorouridine"}]}
{"smiles": "O=c1[nH]cc(C=CBr)c(=O)[nH]1", "note": "[5-(2-bromovinyl)-uracil (BVU), 5-(2-bromovinyl)-uracil]", "values": [{"measurement": "effect on 5-fluorouracil metabolism and antitumour activity", "setting": "[1]", "value": "retards the metabolism of 5-fluorouracil and enhances its antitumour activity"}, {"measurement": "inhibition of dihydrothymidine dehydrogenase", "setting": "uracil reductase; Cancer Research 46, 1094, 1986", "value": "is an inhibitor of dihydrothymidine dehydrogenase"}]}
{"smiles": "C#Cc1cn([C@H]2C[C@H](OC(=O)CCC(=O)O[C@H]3C[C@H](n4cc(F)c(=O)[nH]c4=O)O[C@@H]3CO)[C@@H](CO)O2)c(=O)[nH]c1=O", "note": "[Example 1, 5-Ethynyl-5\"-fluoro-3',3\"-O-succinylbis-(1-(2-deoxy-β-D-erythro-pentofuranosyl)uracil)]", "values": [{"measurement": "5-FU in the 24-48 hr urine", "setting": "[2]", "value": "not detected"}, {"measurement": "MTD", "setting": "[3]; 5-FU and 5-EU equivalents, read-out: toxic at doses, as 5-FU and 5-EU equivalents", "value": "> 4", "unit": "mg/kg"}, {"measurement": "MTD", "setting": "[3]; dose of the linked compound, once/day for 9 days, read-out: toxic at doses", "value": "> 17.9", "unit": "mg/kg"}, {"measurement": "Tumour-free Survivors (Day 56)", "setting": "Colon 38; 1 mg/kg 5-FU equivalent", "value": "0/5"}, {"measurement": "Antitumour Activity T-C", "setting": "Colon 38; 1 mg/kg 5-FU equivalent, once/day for 9 days", "value": 12.9, "unit": "days"}, {"measurement": "Tumour-free Survivors (Day 56)", "setting": "Colon 38; 2 mg/kg 5-FU equivalent", "value": "2/5"}, {"measurement": "Antitumour Activity T-C", "setting": "Colon 38; 2 mg/kg 5-FU equivalent, once/day for 9 days", "value": "> 27.9", "unit": "days"}, {"measurement": "improvement of 5-FU urinary recovery by 5-EU predose", "setting": "[4]; predosed with 5-EU then succinate linked nucleoside", "value": "no improvement"}]}
{"smiles": "C#Cc1c[nH]c(=O)[nH]c1=O", "note": "[Example 5-EU, 5-ethynyluracil]", "values": [{"measurement": "potency as an inactivator of uracil reductase relative to BVU", "setting": "uracil reductase; relative to BVU", "value": 100, "unit": "fold"}]}
{"smiles": "O=c1[nH]cc(F)c(=O)[nH]1", "note": "[Example 5-FU, 5-fluorouracil]", "values": [{"measurement": "dose excreted at 24 h", "setting": "[5]; 5 mg/kg, 5-FU 5 mg/kg, 5-EU predose 2 mg/kg", "value": 52, "unit": "%"}, {"measurement": "dose excreted at 24 h", "setting": "[5]; 5 mg/kg, 5-FU 5 mg/kg, no predose", "value": "< 5", "unit": "%"}, {"measurement": "dose excreted at 24 h", "setting": "[5]; 25 mg/kg, 5-FU 25 mg/kg, 5-EU predose 0.03 mg/kg", "value": "43 to 63", "unit": "%"}, {"measurement": "Tumour-free Survivors (Day 56)", "setting": "Colon 38; 25 mg/kg 5-FU equivalent", "value": "0/5"}, {"measurement": "Antitumour Activity T-C", "setting": "Colon 38; 25 mg/kg 5-FU equivalent, once/day for 9 days", "value": 14.9, "unit": "days"}, {"measurement": "Tumour-free Survivors (Day 56)", "setting": "Colon 38; 30 mg/kg 5-FU equivalent", "value": "0/5"}, {"measurement": "Antitumour Activity T-C", "setting": "Colon 38; 30 mg/kg 5-FU equivalent, once/day for 9 days", "value": 23.6, "unit": "days"}, {"measurement": "Tumour-free Survivors (Day 56)", "setting": "Colon 38; 40 mg/kg 5-FU equivalent", "value": "0/5"}, {"measurement": "Antitumour Activity T-C (column entry Toxic)", "setting": "Colon 38; 40 mg/kg 5-FU equivalent, once/day for 9 days", "value": "Toxic"}, {"measurement": "dose excreted", "setting": "[4]; 5 mg/kg 5-FU, predosed with 5-EU, read-out: urinary recovery of 5-FU", "value": 50, "unit": "%"}, {"measurement": "dose excreted", "setting": "[4]; 5 mg/kg equivalent 5-FU, 5-EU predose 2 mg/kg, Table 2, read-out: Recovery 5-FU (%)", "value": 51, "unit": "%"}, {"measurement": "dose excreted", "setting": "[4]; 5 mg/kg equivalent 5-FU, no predose, Table 2, read-out: Recovery 5-FU (%)", "value": 0, "unit": "%"}, {"measurement": "5-FU detection in the urine", "setting": "[4]; 5 mg/kg 5-FU, without 5-EU predose", "value": "could not be detected"}]}
{"smiles": "C#Cc1cn([C@@H]2O[C@H](CO)[C@@H](O)[C@@H]2O)c(=O)[nH]c1=O", "note": "[arabinoside of 5-EU]", "values": [{"measurement": "dose response for urinary recovery of 5-FU", "setting": "DPD", "value": "A direct dose response for urinary recovery of 5-FU was observed"}]}
